Patent publication US7488425B2, “Method for photolyzing organic matter and method for treating wastewater” (Nisshinbo Industries, Inc., priority 2004, dated 2009)
Structures can show the parent of a compound that is named as a salt.

Assays:
[1] = Mixing with simple distilled water (phase separation, hydrophobicity); assay type: physicochemical
Excerpt: As used herein, “hydrophobic” refers to the property of, after being mixed or stirred with water, separating again into two phases on standing. While it suffices for the hydrophobic ionic liquid to have this quality, when the above photolytic process is employed for the subsequently described wastewater treatment or the like, a hydrophobic ionic liquid with a lower solubility in water will result in a smaller loss of ionic liquid during wastewater treatment and enable treated water having a higher degree of cleanliness to be obtained.
(§1) The solubility in simple distilled water (25° C.) was about 1.5 wt %.

[2] = Solubility of the ionic liquid in simple distilled water; assay type: physicochemical; details: 25° C.
Experimental: as §1

For `CCn1cc[n+](C)c1.O=S(=O)([O-])C(F)(F)F` [EMIMTfO, 1-ethyl-3-methylimidazolium trifluoromethanesulfonate, reference compound], the “behaviour when mixed with simple distilled water” value [1] was “forms a homogeneous phase”.
For `CC[N+](C)(CC)CCOC` [ionic liquid (2), Bis(trifluoromethanesulfonyl)imide Salt of N,N-Diethyl-N-methyl-N-(2-methoxyethyl)ammonium], the “solubility in simple distilled water” value [2] was “about 1.5 wt %” and the “behaviour when mixed with simple distilled water” value [1] was “separated into two phases”.
